Results as given in US6893664B1, “Particle delivery techniques” (Powderject Research Limited, priority 1996, dated 2005).

Experiments:
Format in all cases: physicochemical
[1] = Densification of excipients, comparison of compacted particles with like weights of non-densified starting materials; conditions: compacted at 10,000 lbs/in^2 for 30 seconds, ground, sieved > about 50 μm
Procedure: Finely ground powders of pharmaceutical grade mannitol and lactose were obtained and reprocessed using the method of the invention. Particularly, approximately 30 to 50 mg of mannitol or lactose were compacted under pressure using a Carver Laboratory Pellet Press (Model 3620, available from Carver, Inc., Wabash, Ind.). The pressure of compaction was 10,000 lbs/in^2 which was applied for approximately 30 seconds. The resulting compacted pellets were ground using mortar and pestle until visually broken up, and then sieved to select for particles having a size greater than about 50 μm using the methods described in Example 3.

[2] = Absolute density by helium pycnometry
Procedure: (§1) Trehalose 45H3830 (Sigma) and mannitol K91698380-703 (Merck) were either sieved, or freeze dried, compacted, ground and then sieved. A range of the resulting preparations were then analyzed for particle size and density measurements.
(§2) Portions of each sugar excipient were sieved to obtain preparations having reduced particle sizes. Sieving was carried out using stainless steel sieves for two hours at 3 mm amplitude using three sieve sizes (75 μm, 53 μm and 38 μm) without additional processing.
(§3) Alternatively, portions of each sugar excipient were processed using the methods of the invention as follows. 40 g of each of the sugars was dissolved in water, flash frozen, and then freeze dried over night. Samples of each freeze dried preparation were retained, and the remainder compacted in a 13 mm compression die (15,000 lbs/inch^2 for 45 seconds) into discs. The mannitol discs were ground using mortar and pestle, and then sieved as described above at 3 mm amplitude, using three sieve sizes. The trehalose discs were first ground in a vibratory ball mill (Retsch mill), then ground by mortar and pestle and sieved as above.
(§4) Samples from each of the above-described excipient preparations were then analyzed for absolute and envelope density. Absolute density was determined using helium pycnometry, and envelope density was determined using a GeoPyc™ Model 1360 Envelope Density Analyzer (Micromeritics Instrument Corp.).

[3] = Envelope density by GeoPyc Model 1360 Envelope Density Analyzer; conditions: for change of envelope density by compression, milling, sieving: relative to both the freeze-dried and the sieved preparations
Procedure: as §1, §2, §3, §4

[4] = pretreatment: Freeze Dried, Compressed, Milled, Sieved

Density Absolute ([2]; pretreatment: Freeze Dried) [g/mL]	Density Absolute [2, 4] [g/mL]	Density Absolute ([2]; pretreatment: Sieved) [g/mL]	Density Envelope ([3]; pretreatment: Freeze Dried) [g/mL]	Density Envelope [3, 4] [g/mL]	Density Envelope ([3]; pretreatment: Sieved) [g/mL]	change of envelope density by compression, milling, sieving [3]	SMILES	size of compacted particles versus like weights of non-densified starting materials [1]
1.5	1.5	1.5	0.3	0.8	0.5	significant increase in envelope density	OC[C@@H](O)[C@@H](O)[C@H](O)[C@H](O)CO [Mannitol]	a significant size reduction was observed
–	–	–	–	–	–	–	OC[C@H]1O[C@@H](O[C@H]2[C@H](O)[C@@H](O)C(O)O[C@@H]2CO)[C@H](O)[C@@H](O)[C@H]1O (stereo partly shown) [lactose]	a significant size reduction was observed
1.5	1.5	1.5	0.3	0.8	0.5	significant increase in envelope density	OC[C@H]1O[C@H](O[C@H]2O[C@H](CO)[C@@H](O)[C@H](O)[C@H]2O)[C@H](O)[C@@H](O)[C@@H]1O [Trehalose]	–
